Structures can show the parent of a compound that is named as a salt. Where two headings read alike, the source gives them in different places.
What was measured:
[1] = system: stereotyped movements induced by apomorphine; assay: Antagonism of stereotyped movements induced by apomorphine in rats (central antidopaminergic effect); assay type: in vivo
Method: Another pharmacological study was conducted to determine the central antidopaminergic effects of the compounds of the invention, by evaluating the power of their antagonistic effect in regard to the stereotyped movements induced by apomorphine in two different doses (1.25 mg/kg/IV and 0.5 mg/kg/SC) in rats. The tests were conducted according to conventional procedures.

[2] = in vivo, sc
in vivo [3] = details: mouse, male mice, intravenous, as base, read-out: LD50 in mg/kg (base) intravenously
Method: The compounds according to the invention were the subject of a toxicological study to determine the lethal doses (LD50) in male mice, the compounds being administered intravenously. Metoclopramide was employed as a standard. The compounds of […] were tested.
Table (I) sets out the values with respect to said (LD50) tests.

in vivo [4] = details: sc
Solubility of crystals = assay type: physicochemical
[5] = Rattus norvegicus, ip, I.P., read-out: inhibitor effect on stereotypies in regard to apomorphine, Intraperitoneal (I.P)
[6] = Rattus norvegicus, ip, I.P., at 64 mg/kg, read-out: inhibitor effect on stereotypies in regard to apomorphine, Intraperitoneal (I.P)
[7] = I.P., at 64 mg/kg, result in words

COc1cc(N)c(Cl)cc1C(=O)NCC1=NCCN1CC1CC1 [Example 4, N-[(1-CYCLOPROPYLMETHYL 2-IMIDAZOLIN-2-YL)METHYL] 2-METHOXY 4-AMINO 5-CHLOROBENZAMIDE]
inhibition in vivo at 32 mg/kg [1, 5]: 26% | Stereotypies in regard to apomorphine, Subcutaneous (S.C.) ([1]; S.C., at 100 mg/kg): inactive | Cataleptic Activity (Subcutaneous) ([2]; 200 mg/kg): inactive

C=CCN1CCN=C1CNC(=O)c1cc(Cl)c(N)cc1OC [Example 2, N-[(1-ALLYL 2-IMIDAZOLIN-2-YL)METHYL] 2-METHOXY 4-AMINO 5-CHLOROBENZAMIDE]
LD50 (in vivo [3]): 31.8 mg/kg | Cataleptic Activity (Subcutaneous) ([2]; 200 mg/kg): inactive

C=CCOc1cc(N)c(Cl)cc1C(=O)NCC1=NCCN1CC [Example 5, N-[(1-ETHYL 2-IMIDAZOLIN-2-YL)METHYL] 2-ALLYLOXY 4-AMINO 5-CHLOROBENZAMIDE]
LD50 (in vivo [3]): 25.5 to 26.1 mg/kg | inhibition in vivo at 32 mg/kg [1, 5]: 8% | Stereotypies in regard to apomorphine, Subcutaneous (S.C.) ([1]; S.C., at 200 mg/kg): inactive | Cataleptic Activity (Subcutaneous) ([2]; 200 mg/kg): inactive

COc1cc(N)c(Cl)cc1C(=O)NCC1=NCCN1 [Example 10, N-[(2-IMIDAZOLIN-2-YL)METHYL] 2-METHOXY 4-AMINO 5-CHLOROBENZAMIDE NITRATE]
LD50 (in vivo [3]): 38.4 to 41.9 mg/kg | inhibition in vivo at 64 mg/kg [1, 6]: 4% | Stereotypies in regard to apomorphine, Subcutaneous (S.C.) ([1]; S.C., at 100 mg/kg): inactive | Cataleptic Activity (Subcutaneous) ([2]; 200 mg/kg): inactive

CCN1CC(C)(C)N=C1CNC(=O)c1cc(Cl)c(N)cc1OC [Example 11, N-[(1-ETHYL 4-DIMETHYL 2-IMIDAZOLIN-2-YL)METHYL]2-METHOXY 4-AMINO 5-CHLOROBENZAMIDE]
LD50 (in vivo [3]): 30.4 mg/kg | Stereotypies in regard to apomorphine, Intraperitoneal (I.P) [1, 7]: inactive | Stereotypies in regard to apomorphine, Subcutaneous (S.C.) ([1]; S.C., at 200 mg/kg): inactive | Cataleptic Activity (Subcutaneous) ([2]; 200 mg/kg): inactive

COc1cc(N)c(Cl)cc1C(=O)NCC1=NCCN1Cc1ccccc1 [Example 3, N-[(1-benzyl 2-imidazolin-2-yl)methyl] 2-methoxy 4-amino 5-chlorobenzamide Hydrochloride]
LD50 (in vivo [3]): 47.8 to 48.5 mg/kg | inhibition in vivo at 64 mg/kg [1, 6]: 19% | Stereotypies in regard to apomorphine, Subcutaneous (S.C.) ([1]; S.C., at 200 mg/kg): inactive | Cataleptic Activity (Subcutaneous) ([2]; 200 mg/kg): inactive

CCN1CCN=C1C(C)NC(=O)c1cc(Cl)c(N)cc1OC (stereo not drawn) [Example 14, N-[1-(ethyl 2-imidazolin-2-yl)ethyl]2-methoxy 4-amino 5-chlorobenzamide]
LD50 (in vivo [3]): 14.6 mg/kg | Stereotypies in regard to apomorphine, Intraperitoneal (I.P) ([1]; I.P., at 40 mg/kg): inactive | Stereotypies in regard to apomorphine, Subcutaneous (S.C.) ([1]; S.C., at 80 mg/kg): inactive | Cataleptic Activity (Subcutaneous) ([2]; 80 mg/kg): inactive

CCN1CC(C)N=C1CNC(=O)c1cc(Cl)c(N)cc1OC (stereo not drawn) [Example 9, N-[(1-ETHYL 4-METHYL 2-IMIDAZOLIN-2-YL)METHYL] 2-METHOXY 4-AMINO 5-CHLOROBENZAMIDE]
inhibition in vivo at 64 mg/kg [1, 6]: 5% | Stereotypies in regard to apomorphine, Subcutaneous (S.C.) ([1]; S.C., at 100 mg/kg): inactive | Cataleptic Activity (Subcutaneous) ([2]; 200 mg/kg): inactive

COc1cc(N)c(Cl)cc1C(=O)NCC1=NCCN1C [Example 8, N-[(1-METHYL 2-IMIDAZOLIN-2-YL)METHYL]2-METHOXY 4-AMINO 5-CHLOROBENZAMIDE HYDROCHLORIDE]
inhibition in vivo at 64 mg/kg [1, 6]: 8% | Stereotypies in regard to apomorphine, Subcutaneous (S.C.) ([1]; S.C., at 200 mg/kg): inactive | Cataleptic Activity (Subcutaneous) ([2]; 200 mg/kg): inactive

CCN(CC)CCNC(=O)c1cc(Cl)c(N)cc1OC [METOCLOPRAMIDE, Metoclopramide, reference compound]
LD50 (in vivo [3]): 37.9 mg/kg | ED50 ([1]; Rattus norvegicus, ip, I.P., read-out: ID50, stereotypies in regard to apomorphine, Intraperitoneal (I.P)): 2 to 2.6 mg/kg | ED50 ([1]; Rattus norvegicus, sc, S.C., read-out: ID50, stereotypies in regard to apomorphine, Subcutaneous (S.C.)): 15 to 15.2 mg/kg | antagonism of apomorphine stereotypies (in words) ([1]; same conditions): marked stereotypy inhibitor capacity | TD50 (in vivo [4]): 30 to 38 mg/kg

COc1cc(N)c(Cl)cc1C(=O)NCC1=NCCN1CC1=CCCCC1 [Example 13, N-[1-CYCLOHEXEN-1-YL-METHYL)2-(IMIDAZOLIN-2-YL)METHYL]2-METHOXY 4-AMINO 5-CHLOROBENZAMIDE]
LD50 (in vivo [3]): 61.6 mg/kg | inhibition in vivo at 64 mg/kg [1, 6]: 18% | Stereotypies in regard to apomorphine, Subcutaneous (S.C.) ([1]; S.C., at 200 mg/kg): inactive | Cataleptic Activity (Subcutaneous) ([2]; 200 mg/kg): inactive

CCN1CCN=C1CNC(=O)c1cc(Cl)c(N)cc1O [Example 12, N-[(1-ETHYL 2-IMIDAZOLIN-2-YL)METHYL]2-HYDROXY 4-AMINO 5-CHLOROBENZAMIDE HYDROCHLORIDE]
LD50 (in vivo [3]): 59.3 mg/kg | inhibition in vivo at 54 mg/kg ([1]; Rattus norvegicus, ip, I.P., at 54 mg/kg, read-out: inhibitor effect on stereotypies in regard to apomorphine, Intraperitoneal (I.P)): 2% | Stereotypies in regard to apomorphine, Subcutaneous (S.C.) ([1]; S.C., at 200 mg/kg): inactive | Cataleptic Activity (Subcutaneous) ([2]; 200 mg/kg): inactive

CCN1CCN=C1CNC(=O)c1cc(Br)c(N)cc1OC [Example 6, N-[(1-ETHYL 2-IMIDAZOLIN-2-YL)METHYL] 2-METHOXY 4-AMINO 5-BROMOBENZAMIDE]
inhibition in vivo at 32 mg/kg [1, 5]: 20% | Stereotypies in regard to apomorphine, Subcutaneous (S.C.) ([1]; S.C., at 200 mg/kg): inactive | Cataleptic Activity (Subcutaneous) ([2]; 100 mg/kg): inactive

CCN1CCN=C1CN(C)C(=O)c1cc(Cl)c(N)cc1OC [Example 7, N-METHYL N-[(1-ETHYL 2-IMIDAZOLIN-2-YL)METHYL] 2-METHOXY 4-AMINO 5-CHLOROBENZAMIDE METHANE SULPHONATE]
LD50 (in vivo [3]): 23.4 to 24.4 mg/kg | Stereotypies in regard to apomorphine, Intraperitoneal (I.P) [1, 7]: inactive | Stereotypies in regard to apomorphine, Subcutaneous (S.C.) ([1]; S.C., at 200 mg/kg): inactive | Cataleptic Activity (Subcutaneous) ([2]; 200 mg/kg): inactive

CCN1CCN=C1CNC(=O)c1cc(Cl)c(N)cc1OC [Example 1, N-[(1-ETHYL 2-IMIDAZOLIN-2-YL)METHYL] 2-METHOXY 4-AMINO 5-CHLOROBENZAMIDE]
LD50 (in vivo [3]): 27.1 to 27.2 mg/kg | Stereotypies in regard to apomorphine, Intraperitoneal (I.P) ([1]; I.P., at 50 mg/kg): inactive | Stereotypies in regard to apomorphine, Subcutaneous (S.C.) ([1]; S.C., at 200 mg/kg): inactive | solubility in chloroform (Solubility of crystals; chloroform): highly soluble | solubility in dilute acetic acid (Solubility of crystals; dilute acetic acid): soluble | Cataleptic Activity (Subcutaneous) ([2]; 200 mg/kg): inactive

Source: patent US4703055A, “Benzamides and therapeutic use thereof” (Societe d'Etudes Scientifiques et Industrielles de …, priority 1985, dated 1987)
